Test results as given in publication PMC5773577, “Novel Miniature Membrane Active Lipopeptidomimetics against Planktonic and Biofilm Embedded Methicillin-Resistant Staphylococcus aureus” (Scientific Reports, 2018).

Experiments:
[1] = test system: E. faecium (E-7846), clinical isolate of vancomycin-resistant E. faecium; assay: organism not typed; assay type: cell-based, Enterococcus faecium; conditions: read-out: Minimum inhibitory concentration, MIC
How it was run: (§1)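 Broth microdilution MIC: compounds serially 2-fold diluted in 0.2% BSA (0.01% acetic acid), mid-log bacteria in MHB added to 2–5 × 10^5 CFU/mL. Plates shaken at 180 rpm, 37 °C for 16–18 h; growth read as absorbance at 600 nm. Duplicates on at least three days.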

[2] = test system: E. faecium (E-447), clinical isolate of vancomycin-resistant E. faecium; assay: organism not typed; assay type: cell-based, Enterococcus faecium; conditions: read-out: Minimum inhibitory concentration, MIC
How it was run: as §1

[3] = test system: stationary phase MRSA ATCC 33591; assay: Bacterial killing kinetics, stationary phase cells in nutrient-depleted MHB medium; assay type: cell-based, Staphylococcus aureus; conditions: 24 h
Description: (§2) The kinetics of bacterial killing was determined against MRSA ATCC 33591 strain using drop plate method as described previously with slight modifications[51],[67],[70],[71]. The experiment was performed against exponential phase MRSA in normal medium and stationary phase MRSA in nutrient-depleted medium. For the preparation of nutrient-depleted medium, the primary MRSA ATCC 33591 culture in MHB medium was allowed to grow for 18 h at 37 °C and the cells were removed by centrifugation. The cell pellet was used for stationary phase culture and the spent medium supernatant was used as a nutrient-depleted medium. For obtaining exponential phase cells, MRSA was grown overnight in MHB and 100 μL suspension was used to inoculate 10 mL fresh MHB medium. The cells were incubated at 37 °C for 4–6 h to reach exponential phase.
(§3) For the experiments, both exponential and stationary phase cells were re-suspended separately in normal or nutrient-depleted mediums to OD600 = 0.5 (~10^8 CFU/mL). A 25 µL aliquot of this suspension was added to 475 μL of respective medium with or without test peptidomimetics/antibiotics in an eppendorf tube. […] The agar plates were incubated at 37 °C for 16–18 h and the colonies were counted (dilutions having colonies in the range of 10–100 were counted). […]

MRSA ATCC 33591 [4] = assay: Membrane permeabilization assay, calcein-AM dye release, flow cytometry; assay type: cell-based, Staphylococcus aureus; conditions: PBS, 37 °C, mean ± S.D., two days
Description: To assess the effect of designed peptidomimetics on membrane integrity of MRSA ATCC 33591 strain a calcein-AM dye release experiment was performed using the protocol described previously with slight modifications. Briefly, exponential phase MRSA ATCC 33591 culture was prepared in MHB medium as mentioned earlier and adjusted to OD600 = 1 (~10^9 CFU/mL) in PBS (10 mM sodium phosphate, 150 mM NaCl, pH 7.4). Thereafter, the cells were incubated at 37 °C with calcein-AM (2 μg/mL) in 10% MHB medium for 2 h. The calcein-loaded cells were washed once and re-suspended in PBS to OD600 = 0.5 (~10^8 CFU/mL). […] Subsequently, calcein fluorescence was measured via flow cytometry (Becton Dickinson (BD) FACS verse, San Jose, CA) with excitation and emission wavelengths of 488 nm and 530 ± 30 nm, respectively. For each sample, 10,000 cells were acquired. As a positive control, melittin (10 μM) was assayed under identical conditions. The experiment was repeated on two different days and mean ± S.D. is presented here. Corresponding to leakage a viability assay at 4 × MIC of respective test agents was also performed by incubating samples for 2 h at 37 °C and plating the diluted aliquots on BHI agar plates.

MRSA ATCC 33591 [5] = assay: Cell viability corresponding to calcein leakage experiment; assay type: cell-based, Staphylococcus aureus; conditions: calcein-loaded cells in PBS, 4 × MIC (melittin 10 μM), 2 h incubation
Description: To assess the effect of designed peptidomimetics on membrane integrity of MRSA ATCC 33591 strain a calcein-AM dye release experiment was performed using the protocol described previously with slight modifications[51]. Briefly, exponential phase MRSA ATCC 33591 culture was prepared in MHB medium as mentioned earlier and adjusted to OD600 = 1 (~10^9 CFU/mL) in PBS (10 mM sodium phosphate, 150 mM NaCl, pH 7.4). Thereafter, the cells were incubated at 37 °C with calcein-AM (2 μg/mL) in 10% MHB medium for 2 h. The calcein-loaded cells were washed once and re-suspended in PBS to OD600 = 0.5 (~10^8 CFU/mL). The cells were diluted 100× in PBS to get 3–5 × 10^5 CFU/mL and were incubated with different concentrations of test agents at 37 °C in dark for 2 h. Subsequently, calcein fluorescence was measured via flow cytometry (Becton Dickinson (BD) FACS verse, San Jose, CA) with excitation and emission wavelengths of 488 nm and 530 ± 30 nm, respectively. For each sample, 10,000 cells were acquired. As a positive control, melittin (10 μM) was assayed under identical conditions. The experiment was repeated on two different days and mean ± S.D. is presented here. […]
agar plates. The plates were incubated at 37 °C for 16-18 h and colonies were counted. […]

[6] = test system: exponential phase MRSA ATCC 33591; assay: Bacterial killing kinetics, exponential phase cells in MHB medium; assay type: cell-based, Staphylococcus aureus; conditions: 24 h
Description: as §2, §3

[7] = test system: 48 h mature MRSA ATCC 33591 biofilms; assay: Cell viability of 48 h mature biofilm embedded cells; assay type: cell-based, Staphylococcus aureus; conditions: 24 h treatment at 20 × MIC, mean ± S.D., two experiments, untreated 9.31 ± 0.11
Description: For enumeration of cells after 48 h incubation, the medium was aspirated and the biofilms were washed with PBS once. Then 200 μL PBS was added to each well of the chamber slide and the chambers were thoroughly scraped with a pipette tip. The bacterial suspension obtained was plated on BHI agar after dilution in PBS as described above. The resulting CFU/mL from two different days were counted and plotted as mean ± S.D.

CN[C@H](CC(C)C)C(=O)N[C@H]1C(=O)N[C@@H](CC(N)=O)C(=O)N[C@H]2C(=O)N[C@H]3C(=O)N[C@H](C(=O)N[C@H](C(=O)O)c4cc(O)cc(O)c4-c4cc3ccc4O)[C@H](O)c3ccc(c(Cl)c3)Oc3cc2cc(c3O[C@@H]2O[C@H](CO)[C@@H](O)[C@H](O)[C@H]2O[C@H]2C[C@](C)(N)[C@H](O)[C@H](C)O2)Oc2ccc(cc2Cl)[C@H]1O [VAN, vancomycin]
MIC [1]: > 45.4 µg/mL
MIC [2]: > 45.4 µg/mL
log reduction in CFU/mL ([3]; 4 × MIC): ~ 1.1 log
log reduction in CFU/mL ([3]; 10 × MIC): ~ 1.1 log
% calcein leakage (MRSA ATCC 33591 [4]; at 4 × MIC, 2 min incubation): did not cause any leakage
% calcein leakage (MRSA ATCC 33591 [4]; at 4 × MIC, 2 h incubation): 11.9 ± 9.2%
% calcein leakage (MRSA ATCC 33591 [4]; at MIC, 2 min incubation): 1.6 ± 2.3%
log reduction in viability (MRSA ATCC 33591 [5]): no reduction
log reduction in CFU/mL ([6]; 4 × MIC): ~ 2.3 log
log reduction in CFU/mL ([6]; 10 × MIC): ~ 2.3 log
number of surviving cells [7]: 9.08 ± 0.11 log CFU/mL
